Measurements from patent US20060058366A1, “Jnk inhibitor” (KYOWA HAKKO KOGYO CO., LTD., priority 2002, published 2006).

The molecules below were run on PC12 cells (assay: Apoptosis suppressive activity by removal of NGF in NGF-differentiated PC12 cells (MTT)). Settings: 3 μmol/L test compound; 24 hours without NGF; cells with NGF not removed = 100%, NGF removed = 0%.
Format: cell-based
Experimental: PC12 cells prepared in 6.0×10^4/mL by Roswell Park Memorial Institute's Medium (RPMI) 1640 medium containing 10% of horse serum, 5% of bovine fetal serum and penicillin/streptomycin were disposed in a 24-well multidish (NulgeNunc International; No. 143982) coated with polyethyleneimine in an amount of 0.5 mL for each well. After the cells were adhered to the dish, the medium was removed, an RPMI 1640 medium containing […] of 1% horse serum, penicillin/streptomycin and 50 ng/mL of mouse nerve growth factor (NGF) was added and the cells were incubated in a carbon dioxide gas incubator at 37° C. for 9 to 12 days, causing the cells to differentiate into a nerve cell form. A dilution series of DMSO solution of the test compound was prepared, and diluted with a medium containing 1% horse serum and penicillin/streptomycin and containing no NGF (final DMSO concentration: 0.1%). The medium was removed, washing was conducted twice using a medium containing 0.5 mL of the test compound, 1% horse serum, and penicillin/streptomycin, and containing no NGF, 0.5 mL of the above-medium was added once again to each well and then incubation was conducted in a carbon dioxide gas incubator at 37° C. for 24 hours. The medium was removed, 0.2 mL of a medium containing 1% horse serum, penicillin/streptomycin, NGF and 1 mg/mL 3-(4,5-dimethyl-2-thiazolyl)-2,5-diphenyl-2H-tetrazolium bromide (MTT) containing no test compound, was added to each well and incubation was conducted in a carbon dioxide gas incubator at 37° C. for 4 hours. DMSO (0.6 mL) was added to each well and 0.2 mL thereof was transferred to a 96-well multititer plate (Nulge Nunc International; No. 167008) and absorbances at 590 nm and 630 nm were measured using a microplate reader EL 3401 (Bio-Tek). The absorbance differential was calculated by subtracting the […] for each well. The apoptosis suppressive activity (%) of test compound were calculated by comparing the absorbance differential obtained from cells treated with test compound of known concentration with the value in the cells from which no NGF was removed and the value in the cells from which NGF was removed. Here, the value in the cells from which no NGF was removed was set at 100% while the value in the cells from which NGF was removed was set at 0%.

Q: `CN(C)CCOc1ccc(/C=C/c2n[nH]c3ccccc23)cc1` [Compound 1] was tested. Which “Apoptosis Suppressive Activity in 3 μmol/L of Test Compound (%)” value (shortened to “Apoptosis Suppressive Activity … (%)”) did it give?
A: The value was 63%.

Q: Which “Apoptosis Suppressive Activity … (%)” value does the source give for `C(=C\c1n[nH]c2ccccc12)/c1cccnc1` [Compound 2, (E)-3-[2-(3-Pyridyl)vinyl]-1H-indazole] here?
A: The value was 44%.

Q: `O=C(Nc1ccc2[nH]nc(/C=C/c3cccnc3)c2c1)c1ccccc1` [Compound 4, (E)-5-Benzamido-3-[2-(3-pyridyl)vinyl]-1H-indazole] was tested. Which “Apoptosis Suppressive Activity … (%)” value did it give?
A: The value was 64%.

Q: Which “Apoptosis Suppressive Activity … (%)” value does the source give for `COC(=O)/C=C/c1ccc2[nH]nc(/C=C/c3cccnc3)c2c1` [Compound 14, (E)-5-(2-Methoxycarbonylvinyl)-(E)-3-[2-(3-pyridyl)vinyl]-1H-indazole] here?
A: Its value is 62%.

The molecules below were run against T1, mouse JNK 3 (Mus musculus, UniProt Q61831) (assay: JNK 3 inhibitory activity (33P incorporation into GST-JSAP1 fused protein)). Settings: crude extract of COS-7 cells expressing mouse JNK 3; 3 μmol/L ATP; GST-JSAP1 substrate; 30° C., 15 minutes; read-out: JNK3 Inhibitory Activity (IC50/μM).
T1 construct: made in house; host or cells: COS-7 cells (crude extract)
T1 sequence (Q61831 whole entry, the tested form may be a part): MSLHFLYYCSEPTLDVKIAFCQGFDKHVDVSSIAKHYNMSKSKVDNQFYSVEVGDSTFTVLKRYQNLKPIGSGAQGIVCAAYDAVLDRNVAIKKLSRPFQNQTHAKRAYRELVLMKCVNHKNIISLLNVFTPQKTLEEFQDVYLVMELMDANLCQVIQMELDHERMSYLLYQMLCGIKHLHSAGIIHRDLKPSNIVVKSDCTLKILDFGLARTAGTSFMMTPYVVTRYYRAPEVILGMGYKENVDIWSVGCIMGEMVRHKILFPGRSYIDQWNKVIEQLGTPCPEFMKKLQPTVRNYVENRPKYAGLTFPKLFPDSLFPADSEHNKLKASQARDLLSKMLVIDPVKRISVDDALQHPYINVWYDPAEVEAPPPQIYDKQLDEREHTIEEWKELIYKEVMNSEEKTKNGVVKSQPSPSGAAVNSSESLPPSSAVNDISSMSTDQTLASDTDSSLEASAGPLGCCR
Format: biochemical
Experimental: A crude extract of COS-7 cells in which mouse JNK 3 was expressed was used as the transcription enzyme solution. Glutathione-S-transferase (GST)-JSAP 1 (JNK/SAPK associated protein 1) fused protein was expressed in E. coli and its crude extract was subjected to an affinity purification using a column of Glutathione Sepharose 4B. An enzyme solution (3 μL), 50 μL of a reaction solution containing a test compound [in the reaction solution, (physiological saline)/(DMSO solution containing the test compound) (ratio by weight) was adjusted to 99/1], 50 μL of a substrate solution (final concentration: 3 μmol/L ATP), 0.75 μCi/ml[γ-^33P]-ATP and 66 μg/mL (1.5 μmol/L) of GST-JSAP1 fused protein reaction solution were incubated at 30° C. for 15 minutes. The reaction was stopped by addition of ethanol whereupon the GST-JSAP1 fused protein was precipitated. The precipitated protein was filtered using a Filter Mate Harvester (Packard Instruments) and adsorbed to a Unifilter Plate GF/B. Incorporation of radiation activity from [γ-^33P1-ATP to the GST-JSAP1 fused protein was measured using TopCount-HTS (Packard Instruments) to calculate enzyme inhibition activity. The enzyme inhibitory activity was calculated by a Probit (L) method using a statistic analysis software SAS (Release 6.12; SAS Institute, Inc.) as the 50% enzyme activity inhibiting concentration (IC50).

Q: With `CN(C)CCOc1ccc(/C=C/c2n[nH]c3ccccc23)cc1` [Compound 1] as the molecule, how does the IC50 read?
A: Its IC50 is less than 0.5 µM.

Q: For `C(=C\c1n[nH]c2ccccc12)/c1cccnc1` [Compound 2, (E)-3-[2-(3-Pyridyl)vinyl]-1H-indazole], which IC50 is on record?
A: The IC50 was less than 0.5 µM.

Q: `O=C(Cc1c[nH]c2ccccc12)Nc1ccc2[nH]nc(/C=C/c3cccnc3)c2c1` [Compound 6, (E)-5-(3-Indolyl)acetamide-3-[2-(3-pyridyl)vinyl]-1H-indazole] was tested. Which IC50 did it give?
A: The IC50 was less than 0.5 µM.

Q: How did the IC50 turn out when `O=C(CCS(=O)(=O)c1ccccc1)Nc1ccc2[nH]nc(/C=C/c3cccnc3)c2c1` [Compound 7, (E)-5-[3-(Phenylsulfonyl)propaneamido]-3-[2-(3-pyridyl)vinyl]-1H-indazole] was run?
A: The IC50 was 1.2 µM.

Q: With `O=C(Nc1ccc2[nH]nc(/C=C/c3cccnc3)c2c1)c1cnccn1` [Compound 9, (E)-5-(Pyrazinecarboxamido)-3-[2-(3-pyridyl)vinyl]-1H-indazole] as the molecule, how does the IC50 read?
A: The IC50 was 0.55 µM.

Q: How did the IC50 turn out when `O=C(Nc1ccc2[nH]nc(/C=C/c3cccnc3)c2c1)c1ccncc1` [Compound 11, (E)-5-(4-Pyridinecarboxamido)-3-[2-(3-pyridyl)vinyl]-1H-indazole] was run?
A: Its IC50 is less than 0.5 µM.

Q: `O=C(O)c1ccc(C(=O)Nc2ccc3[nH]nc(/C=C/c4cccnc4)c3c2)cc1` [Compound 12, (E)-5-(4-Carboxybenzamido)-3-[2-(3-pyridyl)vinyl]-1H-indazole] was tested. Which IC50 did it give?
A: The IC50 was less than 0.5 µM.

Q: Which IC50 does the source give for `COC(=O)/C=C/c1ccc2[nH]nc(/C=C/c3cccnc3)c2c1` [Compound 14, (E)-5-(2-Methoxycarbonylvinyl)-(E)-3-[2-(3-pyridyl)vinyl]-1H-indazole] here?
A: Its IC50 is less than 0.5 µM.

Q: For `O=C(O)/C=C/c1ccc2[nH]nc(/C=C/c3cccnc3)c2c1` [Compound 15, (E)-5-(2-Carbonxyvinyl)-(E)-3-[2-(3-pyridyl)vinyl]-1H-indazole], which IC50 is on record?
A: Its IC50 is less than 0.5 µM.

Q: With `O=C(O)c1ccc(/C=C/c2ccc3[nH]nc(/C=C/c4cccnc4)c3c2)cc1` [Compound 17, (E)-5-[2-(4-Carboxyphenyl)vinyl]-(E)-3-[2-(3-pyridyl)vinyl]-1H-indazole] as the molecule, how does the IC50 read?
A: The IC50 was less than 0.5 µM.

Q: With `OCC#Cc1ccc2[nH]nc(/C=C/c3cccnc3)c2c1` [Compound 18, (E)-5-(3-hydroxy-1-propyn-1-yl)-3-[2-(3-pyridyl)vinyl]-1H-indazole] as the molecule, how does the IC50 read?
A: The IC50 was less than 0.5 µM.

Q: Which IC50 does the source give for `O=C(O)c1ccc2[nH]nc(/C=C/c3cccnc3)c2c1` [Compound 19, (E)-3-[2-(3-Pyridyl)vinyl]-1H-indazole-5-carboxylic acid] here?
A: The IC50 was less than 0.5 µM.

Q: `OCC=Cc1ccc2[nH]nc(/C=C/c3cccnc3)c2c1` [Compound 21, (E)-5-(3-Hydroxy-1-propen-1-yl)-3-[2-(3-pyridyl)vinyl]-1H-indazole] was tested. Which IC50 did it give?
A: Its IC50 is less than 0.5 µM.

Q: `O=C(O)c1ccc(C(=O)Nc2ccc3[nH]nc(/C=C/c4cnccc4NC(=O)c4ccccc4)c3c2)cc1` [Compound 24, (E)-3-[2-(4-Benzamidopyridin-3-yl)vinyl]-5-(4-carboxybenzamido)-1H-indazole] was tested. Which IC50 did it give?
A: Its IC50 is less than 0.5 µM.

Q: Which IC50 does the source give for `O=C(Nc1ccccc1/C=C/c1n[nH]c2ccc(/C=C/CO)cc12)c1ccccc1` [Compound 25, (E)-3-[2-(2-Benzoylaminophenyl)vinyl]-(E)-5-(3-hydroxy-1-propen-1-yl)-1H-indazole] here?
A: Its IC50 is less than 0.5 µM.

Q: `O=C(Nc1ccccc1/C=C/c1n[nH]c2ccc(C#CCO)cc12)c1ccccc1` [Compound 26, (E)-3-[2-(2-Benezoylaminophenyl)vinyl]-5-(3-hydroxy-1-propyn-1-yl)-1H-indazole] was tested. Which IC50 did it give?
A: Its IC50 is less than 0.5 µM.

Q: “(E)-3-[2-(Benzamidopyridin-3-yl)vinyl]-(E)-5-(2-carboxyvinyl)-1H-indazole [Compound 23]” was tested. Which IC50 did it give?
A: The IC50 was less than 0.5 µM.
